Patent publication US7045502B2, “Use of melagatran for the manufacture of a medicament for the treatment of Type 1 diabetes mellitus” (AstraZeneca AB, priority 2002, dated 2006)
“Also recorded” adds a separate entry of the source.

Columns and labels:
[1] = tested on: human islets; assay: Islet perfusion system (islet function, insulin secretion); format: cell-based; conditions: 10 μM melagatran
Text: Pancreases were obtained from cadaver donors after consent was obtained either from the organ donor registry or from relatives. The organs were obtained from three female and two male normoglycemic donors (aged 59–85 years, three with blood group 0 and two with blood group A). The islets were isolated at the Division for Clinical Immunology at the University of Uppsala using a modification of previously described semiautomated digestion-filtration methods (Brandhorst et al, Cell Transplant., 7, 489 (1998) and Ricordi et al, Diabetes, 37, 413 (1988)). This isolation procedure was followed by further purification on a continuous density gradient in a refrigerated COBE 2991 centrifuge (COBE Blood Component Technology, Lakewood, Colo., USA). The islets were placed in untreated culture flasks and maintained in suspension culture at 37° C. (5% CO2) for. 1 to 5 days. The culture medium (CMRL 1066; ICN Biomedicals, Costa Mesa, Calif.) was changed every other day. The volume and purity of the islets were determined by microscopic sizing on a grid after staining with diphenylthiocarbazone. […] Viability was assessed in terms of insulin secretion in response to a glucose challenge in a dynamic perfusion system (in 1.67 mmol/L glucose, then in 16.7 mmol/L, and finally back to 1.67 mmol/L). […]

[2] = tested on: complement system; assay: Activation of complement in serum in wells of microtiter plates; format: biochemical; conditions: human serum, no islets, 0 to 10 μM, 30 min, 37° C.
Description: The direct effect of melagatran on the complement system was studied using a method in which serum was incubated in the wells of microtiter plates (Nilsson et al, Mol. Immunol., 30, 211 (1993)). Serum (100 μL) was added to each well of a 96-well microtiter plate together with melagatran at a final concentration of 0, 0.4, 1, 4, or 10 μM. After a 30-min incubation at 37° C., the serum was transferred to tubes containing EDTA (final concentration, 10 mM). These samples were stored at −70° C. before analysis of the complement fragment C3a (see below). In order to detect bound C3 fragments, the wells of the microtiter plates were washed with PBS containing 0.05% (v/v) TWEEN 20 and incubated with 100 μL of horseradish peroxidase (HRP)-conjugated anti-C3c (DAKO. AS, Glostrup, Denmark) for 60 min at 37° C. The binding of antibody was detected by the addition of 1,2-phenylendiamine dihydrochloride (Fluka, Switzerland), and the staining was monitored at 492 nm.
EDTA-plasma was analyzed as previously described (Nilsson Ekdahl et al, Scand. J. Immunol., 35, 85 (1992)). Monoclonal antibody 4SD17.3 was used as capture antibody. Bound C3a was detected with biotinylated polyclonal anti-C3a followed by HRP-conjugated streptavidin (Amersham, Buckinghamshire, UK). Zymosan-activated serum, calibrated against a solution of purified C3a, served as a standard, and the values are given as ng/mL.

[3] = tested on: human islets; assay: Immunohistochemical staining of human islets after perfusion in the tubing loop model; format: cell-based; conditions: 10 μM melagatran
Text: (§1) A modification of the model previously described was used (see Bennet et al, Diabetes, 48, 1907 (1999), Gong et al, J. Clin. Immunol., 16, 222 (1996) and Larsson et al, Immunophamnacology, 38, 119 (1997)). This device consisted of loops made of PVC (diameter, 6.3 mm; length, 390 mm) whose inner surface was furnished with immobilized heparin. The tubing was held together with a specially designed heparinized connector. A circular loop was formed when the ends of the connector were tightly pushed into the lumen of the tubing ends. A rocking apparatus, placed in a 37° C. incubator, was used to generate blood flow inside the loops. The loops were rocked at a setting that prevented the blood from coming into contact with the connectors. Up to twelve devices could be rocked at the same time. Ten 60-min islet experiments were performed, with islets isolated from five different donors. Melagatran (Astraeneca R&D Mölndal, Sweden), dissolved in 5 mM citrate buffer containing 0.15 M NaCl, pH 5.5, was tested at 0, 0.4 μM, 1 μM, 4 μM, and 10 μM. For each experiment, two loops of fresh human blood without islets, one containing CMRL 1066 (GibcoRBL, USA) and one containing 10 μM melagatran, were included as controls. Fresh ABO-compatible human blood from the same donor (5 mL) was added to each loop. The loops were placed on the rocking device for a 10-min preincubation with melagatran or citrate buffer. Thereafter, the loops were opened, and 150 μL of CMRL 1066, with or without 4 μL of islets (approximately 4,000 IEQ), was added to the loops, followed by another 60-min incubation on the rocking device at 37° C. Blood glucose levels were measured with a glucometer (Glucometer Elite; Bayer Diagnostics, Leverkusen, Germany) before the perfusion. After every perfusion the loop contents were filtered through 70 μm-diameter filters (Filcons, Cuptype; DAKO, Denmark). Both macroscopic blood clots and tissue recovered on the filters were frozen in liquid nitrogen for immunohistochemical staining. For immunohistochemical comparison, non-perfused islets were also frozen and stained by the same procedure. […]

[4] = tested on: human islets in ABO-compatible blood (IBMIR); assay: Tubing loop model: human islets perfused with fresh ABO-compatible human blood (IBMIR); format: cell-based
Text: Pancreases were obtained from cadaver donors after consent was obtained either from the organ donor registry or from relatives. The organs were obtained from three female and two male normoglycemic donors (aged 59–85 years, three with blood group 0 and two with blood group A). The islets were isolated at the Division for Clinical Immunology at the University of Uppsala using a modification of previously described semiautomated digestion-filtration methods (Brandhorst et al, Cell Transplant., 7, 489 (1998) and Ricordi et al, Diabetes, 37, 413 (1988)). This isolation procedure was followed by further purification on a continuous density gradient in a refrigerated COBE 2991 centrifuge (COBE Blood Component Technology, Lakewood, Colo., USA). The islets were placed in untreated culture flasks and maintained in suspension culture at 37° C. (5% CO2) for. 1 to 5 days. The culture medium (CMRL 1066; ICN Biomedicals, Costa Mesa, Calif.) was changed every other day. The volume and purity of the islets were determined by microscopic sizing on a grid after staining with diphenylthiocarbazone. The purity of the islet preparations used in this study ranged from 40% and 95% (70±6.3%) (amount of endocrine compared to exocrine/duct tissue in the preparation; mean ±SD). Viability was assessed in terms of insulin secretion in response to a glucose challenge in a dynamic perfusion system (in 1.67 mmol/L glucose, then in 16.7 mmol/L, and finally back to 1.67 mmol/L).
All materials that came in contact with whole blood were furnished with a Corline heparin surface (Corline, Uppsala, Sweden) according to the manufacturer's recommendation (see J. Clin. Immunol., 16, 222 (1996)). The surface concentration of heparin was 0.5 μg/cm^2, corresponding to approximately 0.1 U/cm^2, with an antithrombin binding capacity of 2–4 pmol/cm^2.
Fresh human blood, obtained from healthy volunteers who had received no medication for at least 14 days, was collected in surface-heparinized 60-mL syringes (18 gauge, Microlance; Becton Dickinson, Franklin Lakes, N.J.). The cannulae of the syringes were connected to surface-heparinized-silicon tubing. During sampling, the syringes were rotated continuously.
as §1, with “perfusion.” for “perfusion. After every perfusion the loop contents were filtered through 70 μm-diameter filters (Filcons, Cuptype; DAKO, Denmark). Both macroscopic blood clots and tissue recovered on the filters were frozen in liquid nitrogen for immunohistochemical staining. For immunohistochemical comparison, non-perfused islets were also frozen and stained by the same procedure.”

[5] = islets, 10 μM melagatran, 60 min perifusion with ABO-compatible blood, mean ± SEM, n=10
[6] = islets, 10 μM melagatran, 60 min perifusion with ABO-compatible blood, plasma, mean ± SEM, n=10

Insulin release on perfusion of islets [1]: did not induce insulin release
Subsequent glucose stimulation of islets ([1]; glucose 16.7 mmol/L): normal
Binding of C3 fragments to the polystyrene surface [2]: no effect
SMILES: N=C(N)c1ccc(CNC(=O)[C@@H]2CCN2C(=O)[C@H](NCC(=O)O)C2CCCCC2)cc1 [melagatran, HOOC—CH2—(R)Cgl-Aze-Pab-H]
Generation of C3a [2]: no effect
Clot formation around islets ([3]; 60 min perfusion with fresh human blood): no signs of clot formation
CD11b+ cells penetrated into the islets ([3]; 60 min perfusion, anti-CD11b staining): only a few
CD41+ platelets surrounding the islet surface ([3]; 60 min perfusion, anti-CD41a staining): almost no
FXIa-AT versus medium control ([4]; 4 μM melagatran, FIG. 1B): decreased to nearly the same level as the medium control
TAT versus medium control ([4]; 4 μM melagatran, FIG. 1B): decreased to nearly the same level as the medium control
Cell consumption and cascade system activation ([4]; 0.4 to 10 μM, 60 min): diminished cell consumption and cascade system activation in a dose-dependent manner
Release of β-TG ([4]; at ≧4 μM, FIG. 1A): normalized
Inhibition of prothrombin fragment 1+2 formation ([4]; compared with 4 μM needed for TAT and FXIa-AT, FIG. 1B): required higher doses
Inhibition of IBMIR (overall) ([4]; in vitro): almost completely inhibits IBMIR; also recorded: abrogated IBMIR
Granulocytes [4, 5]: 3.7 ± 0.3 ×10^9/L
Lymphocytes [4, 5]: 2.0 ± 0.1 ×10^9/L
Monocytes [4, 5]: 0.6 ± 0.1 ×10^9/L
Platelets [4, 5]: 170 ± 8.2 ×10^9/L
C3a [4, 6]: 510 ± 50 ng/mL
FXIa-AT [4, 6]: 0.9 ± 0.6 µmol/L
Insulin [4, 6]: 1500 ± 350 mU/L
Prothrombin F1 + 2 [4, 6]: 110 ± 28 nmol/L
TAT [4, 6]: 890 ± 160 µg/L
sC5b-9 [4, 6]: 140 ± 17.0 AU/mL
β-TG [4, 6]: 1300 ± 200 IU/mL
Complement activation product C3a ([4]; tubing loop with islets, 0 to 10 μM, FIG. 2): inhibited
Concentration at which an effect on most parameters was already observed ([4]; tubing loop, 60 min): 0.4 µM
Concentration at which cell counts were fully restored ([4]; tubing loop, 60 min, FIGS. 1A, 1C): ≥ 4 µM
